Experimental data reported in patent publication US10471043B2, “Compounds and methods of treating bacterial infections” (ULTUPHARMA AB, priority 2015, dated 2019).
≈ marks a conversion by molar mass, not a printed value. Where two headings read alike, the source gives them in different places.

Experiments:
[1] = test system: Staphylococcus aureus strain LMG15975; test: MIC by broth micro-dilution, AM3/PBS 1:1; type: cell-based
Procedure: (§1) At first (Table 1), MIC is determined by broth micro-dilution method. The test medium is Antibiotic Medium 3 (AM3; Difco Ltd) mixed with Phosphate Buffered Saline (PBS) in proportions 1:1. Selected MIC values are verified using cation-adjusted Mueller Hinton Broth (MHB; BD). Cell concentration of tested pathogen is adjusted to between 3 and 5×10^5 cells per ml. To verify cell concentration of tested pathogen, viable cell counts are performed directly after each MIC-test by dilution method with PBS as a dilution solvent. Cells are counted on the agar plates with 50% strength Vegetable Peptone Broth (50% VPB; Oxoid Ltd) after 16 to 20 h of incubation at 37° C.
(§2) Cells of pathogen suspended in test medium are distributed to the wells and the plates are incubated for 16 to 20 h at 37° C. Negative controls are wells with the test medium only and positive controls are wells with the pathogen in test medium. The MIC is defined as the lowest concentration of each compound with no visible growth of pathogen.
Example compounds of formula I were examined for antibacterial activity against the Gram-positive bacterium Staphylococcus aureus strain LMG15975 using the above described method (Table 1).

[2] = in vitro; settings: human, CC50 (μg/mL)
[3] = Cytotoxicity assay, WST-8; settings: human, HepG2 cells, CC50 (μg/mL), HepG2, 48 hours, Table 1
[4] = test system: A. baumannii; test: MIC by broth micro-dilution; type: cell-based; settings: Acinetobacter baumannii, A. baumannii (G−), Table 2; read-out: MIC (μg/ml) A. baumannii
Procedure: as §1, §2

[5] = test system: Bacillus cereus; test: MIC by broth micro-dilution; type: cell-based; settings: Table 4, read-out: MIC (μg/ml) B. cereus
Procedure: as §1, §2

[6] = test system: S. epidermidis; test: Antimicrobial Susceptibility Test by Broth Microdilution, M07-A9 CLSI; type: cell-based; settings: Staphylococcus epidermidis
[7] = test system: E. faecium; test: as above; type: cell-based; settings: Enterococcus faecium; E. faecium 7, Vancomycin-resistant, Table 5; read-out: MIC
[8] = test system: S. aureus; test: as above; type: cell-based; settings: Staphylococcus aureus
[9] = test system: E. faecalis; test: as above; type: cell-based; settings: Enterococcus faecalis
[10] = test system: mupirocin-resistant strains of Staphylococcus aureus; test: MIC against mupirocin-resistant strains; type: cell-based; settings: Staphylococcus aureus; all 4 strains (V55, V86, V308, V321); read-out: MIC values for mupirocin
Procedure: as §1, §2

[11] = LMG15975, S. aureus LMG15975, Table 1, read-out: MIC
[12] = LMG15975, S. aureus LMG15975, Table 1, read-out: MIC (μg/ml)
[13] = LMG15975, S. aureus (G+), Table 2, read-out: MIC (μg/ml) S. aureus

CCCCCCCCC[C@@H]1CC(O)=C(C(=O)CCC)C(=O)O1 [Ex. 2A, (R)-3-butyryl-4-hydroxy-6-nonyl-5,6-dihydro-2H-pyran-2-one]
MIC [1, 11]: 3.2 to 6.4 µM
MIC [1, 12]: 1 to 2 µg/mL
CC50 at 48 h [2]: 27 µM

CCCCCCCCC[C@H]1CC(O)=C(C(=O)CCC)C(=O)O1 [Ex. 2B, (S)-3-butyryl-4-hydroxy-6-nonyl-5,6-dihydro-2H-pyran-2-one]
MIC [1, 11]: 1.3 to 1.9 µM
MIC [1, 12]: 0.4 to 0.6 µg/mL
CC50 at 48 h [2]: 25 µM

CCCCCCCCCCC1CC(O)=C(C(=O)CCCC)C(=O)O1 (stereo not drawn) [Ex. 3, 6-decyl-4-hydroxy-3-pentanoyl-5,6-dihydro-2H-pyran-2-one]
MIC [1, 11]: 1.2 to 1.8 µM
MIC [1, 12]: 0.4 to 0.6 µg/mL
CC50 at 48 h [3]: 13 µM

CCCCCCC/C=C/C1CC(O)=C(C(=O)CCC)C(=O)O1 (stereo not drawn) [Ex. 4, (E)-3-butyryl-6-(non-1-en-1-yl)-4-hydroxy-5,6-dihydro-2H-pyran-2-one]
MIC [1, 11]: 2.6 to 3.9 µM
MIC [1, 12]: 0.8 to 1.2 µg/mL
CC50 at 48 h [2]: 36 µM

CCCCCCCCCC1CC(O)=C(C(=O)CC)C(=O)O1 (stereo not drawn) [Ex. 5, 4-hydroxy-6-nonyl-3-propionyl-5,6-dihydro-2H-pyran-2-one]
MIC [4]: 32 to 48 µg/mL (≈ 108 to 162 µM)
MIC [5]: ≤ 1 µg/mL
MIC [1, 13]: 0.7 µg/mL
MIC [1, 11]: 2.2 µM
MIC [1, 12]: 0.65 µg/mL
MIC ([1]; LMG15975, Table 4, read-out: MIC (μg/ml) S. aureus): 0.7 µg/mL
CC50 at 48 h [3]: 50 µM

CCCCCCCCC1CC(O)=C(C(=O)CC)C(=O)O1 (stereo not drawn) [Ex. 6, 4-hydroxy-6-octyl-3-propionyl-5,6-dihydro-2H-pyran-2-one]
MIC [1, 11]: 4.3 µM
MIC [1, 12]: 1.2 µg/mL
CC50 at 48 h [3]: 55 µM

CCCCCCCCC1CC(O)=C(C(C)=O)C(=O)O1 (stereo not drawn) [Ex. 7, 3-acetyl-4-hydroxy-6-octyl-5,6-dihydro-2H-pyran-2-one]
MIC [1, 11]: 9.3 µM
MIC [1, 12]: 2.5 µg/mL
CC50 at 48 h [3]: 65 µM

CCCCCCCCCC1CC(O)=C(C(C)=O)C(=O)O1 (stereo not drawn) [Ex. 9, 3-acetyl-4-hydroxy-6-nonyl-5,6-dihydro-2H-pyran-2-one]
MIC [4]: > 64 µg/mL
MIC [1, 13]: 1.5 to 2.5 µg/mL
MIC [1, 11]: 2.1 to 4.3 µM
MIC [1, 12]: 1.5 to 2.5 µg/mL
CC50 at 48 h [3]: 71 µM

CCCCCCCCCCC1CC(O)=C(C(C)=O)C(=O)O1 (stereo not drawn) [Ex. 11, 3-acetyl-6-decyl-4-hydroxy-5,6-dihydro-2H-pyran-2-one]
MIC [1, 11]: 2.7 to 4 µM
MIC [1, 12]: 0.8 to 1.2 µg/mL
CC50 at 48 h [3]: 40 µM

CCCCCCCCCCC1CC(O)=C(C(=O)CCC)C(=O)O1 (stereo not drawn) [Ex. 12, 3-butyryl-6-decyl-4-hydroxy-5,6-dihydro-2H-pyran-2-one]
MIC [4]: 8 to 16 µg/mL (≈ 24.7 to 49.3 µM)
MIC [1, 13]: 0.6 to 0.8 µg/mL
MIC [1, 11]: 1.9 to 2.6 µM
MIC [1, 12]: 0.6 to 0.8 µg/mL
CC50 at 48 h [3]: 25 µM

CCCCCCCCC1CC(O)=C(C(=O)CCC)C(=O)O1 (stereo not drawn) [Ex. 13, 3-butyryl-4-hydroxy-6-octyl-5,6-dihydro-2H-pyran-2-one]
MIC [4]: 24 to 32 µg/mL (≈ 81 to 108 µM)
MIC [1, 13]: 0.8 to 1.5 µg/mL
MIC [1, 11]: 2.7 to 5.1 µM
MIC [1, 12]: 0.8 to 1.5 µg/mL
CC50 at 48 h [3]: 30 µM

CCCCCCCCCC1CC(O)=C(C(=O)CC(C)C)C(=O)O1 (stereo not drawn) [Ex. 15, 4-hydroxy-3-(3-methylbutanoyl)-6-nonyl-5,6-dihydro-2H-pyran-2-one]
MIC [1, 11]: 0.6 to 1.2 µM
MIC [1, 12]: 0.2 to 0.4 µg/mL
CC50 at 48 h [3]: 21 µM

CCCCCCCCCCCC1CC(O)=C(C(=O)CCC)C(=O)O1 (stereo not drawn) [Ex. 16, 3-butyryl-4-hydroxy-6-undecyl-5,6-dihydro-2H-pyran-2-one]
MIC [4]: < 4 µg/mL
MIC ([6]; S. epidermis RO7, Methicillin-sensitive, Table 5): 0.5 µg/mL (≈ 1.48 µM)
MIC ([6]; S. epidermis Staph 1, Methicillin-resistant): 0.5 µg/mL (≈ 1.48 µM)
MIC ([6]; S. epidermis TA12, Methicillin-resistant, Table 5): 1 µg/mL (≈ 2.95 µM)
MIC [1, 13]: 0.1 to 0.2 µg/mL
MIC ([1]; LMG15975, S. aureus LMG 15975 (SLU), Methicillin-resistant, Table 5, read-out: MIC (μg/mL)): 0.1 to 0.2 µg/mL
MIC [1, 11]: 0.3 to 0.6 µM
MIC [1, 12]: 0.1 to 0.2 µg/mL
MIC [7]: 2 µg/mL (≈ 5.91 µM)
MIC ([8]; ATCC29213, S. aureus ATCC29213, QC strain, Table 5): 4 µg/mL (≈ 11.8 µM)
MIC ([8]; S. aureus 7280, Methicillin-resistant): 8 µg/mL (≈ 23.6 µM)
MIC ([8]; S. aureus MO17, Methicillin-sensitive, Table 5): 4 µg/mL (≈ 11.8 µM)
MIC ([8]; S. aureus PICI, Methicillin-resistant, Table 5): 4 µg/mL (≈ 11.8 µM)
CC50 at 48 h [2]: 19 µM
MIC ([9]; E. faecalis 14, Vancomycin-resistant): 1 µg/mL (≈ 2.95 µM)
MIC ([9]; E. faecalis 24, Vancomycin-sensitive, Table 5): 1 µg/mL (≈ 2.95 µM)

CCCCCCCCCC1CC(O)=C(C(=O)CCCCC)C(=O)O1 (stereo not drawn) [Ex. 18, 3-hexanoyl-4-hydroxy-6-nonyl-5,6-dihydro-2H-pyran-2-one]
MIC [4]: 4 to 8 µg/mL (≈ 11.8 to 23.6 µM)
MIC [1, 13]: 0.6 to 0.8 µg/mL
MIC [1, 11]: 1.8 to 2.4 µM
MIC [1, 12]: 0.6 to 0.8 µg/mL
CC50 at 48 h [3]: 15 µM

CCCC(=O)C1=C(O)CC(CCCCCCCC#N)OC1=O (stereo not drawn) [Ex. 19, 8-(5-butyryl-4-hydroxy-6-oxo-3,6-dihydro-2H-pyran-2-yl)octanenitrile]
MIC [1, 11]: 133 to 166 µM
MIC [1, 12]: 40 to 50 µg/mL
CC50 at 48 h [2]: > 100 µM

CCCC(=O)C1=C(O)CC(CCCCCCCOC)OC1=O (stereo not drawn) [Ex. 20, 3-butyryl-4-hydroxy-6-(7-methoxyheptyl)-5,6-dihydro-2H-pyran-2-one]
MIC [1, 11]: 64 to 96 µM
MIC [1, 12]: 20 to 30 µg/mL
CC50 at 48 h [3]: 80 µM

CCCC(=O)C1=C(O)CC(CC(C)CCC=C(C)C)OC1=O (stereo not drawn) [Ex. 21, 3-butyryl-6-(2,6-dimethylhept-5-enyl)-4-hydroxy-5,6-dihydro-2H-pyran-2-one]
MIC [1, 11]: 6.5 to 9.7 µM
MIC [1, 12]: 2 to 3 µg/mL

CCCC(=O)C1=C(O)CC(CC2CCCC2)OC1=O (stereo not drawn) [Ex. 22, 3-butyryl-6-(cyclopentylmethyl)-4-hydroxy-5,6-dihydro-2H-pyran-2-one]
MIC [1, 11]: 22 to 45 µM
MIC [1, 12]: 6 to 12 µg/mL

COCCCCCCC1CC(O)=C(C(=O)CC2CCCC2)C(=O)O1 (stereo not drawn) [Ex. 23, 3-(2-cyclopentylacetyl)-4-hydroxy-6-(6-methoxyhexyl)-5,6-dihydro-2H-pyran-2-one]
MIC [1, 11]: 29 to 59 µM
MIC [1, 12]: 10 to 20 µg/mL

CCCCCCCCCC1CC(O)=C(C(=O)CCOC)C(=O)O1 (stereo not drawn) [Ex. 24, 4-hydroxy-3-(3-methoxypropanoyl)-6-nonyl-5,6-dihydro-2H-pyran-2-one]
MIC [1, 11]: 6.1 to 15 µM
MIC [1, 12]: 2 to 5 µg/mL

COCCCCCCC1CC(O)=C(C(=O)CC2CC2)C(=O)O1 (stereo not drawn) [Ex. 25, 3-(2-cyclopropylacetyl)-4-hydroxy-6-(6-methoxyhexyl)-5,6-dihydro-2H-pyran-2-one]
MIC [1, 11]: > 64 µM
MIC [1, 12]: > 20 µg/mL

CCCCCCCCCC1CC(O)=C(C(=O)CC2CCOCC2)C(=O)O1 (stereo not drawn) [Ex. 26, 4-hydroxy-6-nonyl-3-(2-(tetrahydro-2H-pyran-4-yl)acetyl)-5,6-dihydro-2H-pyran-2-one]
MIC [1, 11]: 1.4 to 2.7 µM
MIC [1, 12]: 0.5 to 1 µg/mL

N#CCCCCCCCC1CC(O)=C(C(=O)CC2CCOCC2)C(=O)O1 (stereo not drawn) [Ex. 27, 8-(4-hydroxy-6-oxo-5-(2-(tetrahydro-2H-pyran-4-yl)acetyl)-3,6-dihydro-2H-pyran-2-yl)octanenitrile]
MIC [1, 11]: 5.5 to 14 µM
MIC [1, 12]: 2 to 5 µg/mL

N#CCCCCCCCC1CC(O)=C(C(=O)CC2CCCCC2)C(=O)O1 (stereo not drawn) [Ex. 28, 8-(5-(2-cyclohexylacetyl)-4-hydroxy-6-oxo-3,6-dihydro-2H-pyran-2-yl)octanenitrile]
MIC [1, 11]: > 55 µM
MIC [1, 12]: > 20 µg/mL

C/C(=C\C(=O)OCCCCCCCCC(=O)O)C[C@@H]1OC[C@H](C[C@@H]2O[C@H]2[C@@H](C)[C@H](C)O)[C@@H](O)[C@H]1O [mupirocin, reference compound]
MIC [10]: > 256 µg/mL
